The test system of test [1] is Colo375FG metastatic pancreatic adenocarcinoma cells. Kind of test: Live cell number (Coulter counter, methylene blue, PI exclusion). Format: cell-based, human. The procedure: Colo375FG metastatic pancreatic adenocarcinoma cells are cultured in Dulbecco Modified Eagle Medium with 10% fetal bovine serum. Cells are plated at 10^5 per P100 or at 10^4 per P60 (for assays requiring up to 3 days of culture), in the presence of different concentrations of BiPar compounds and other agents, or DMSO control. Following treatment, the number of attached cells is measured using Coulter counter, and by staining with 1% methylene blue. Methylene blue is dissolved in 50%-50% mixture of Methanol and water. Cells are plated in 24- or 96-well plates and treated with compounds as indicated, then media are aspirated, cells are washed with PBS, fixed in methanol for 5-10 min, washed and the plates are allowed to dry completely. Methylene blue solution is added to wells and plates are incubated for 5 min. Staining solution is removed and plates are washed with dH2O. After plates are completely dry, a small amount of 1N HCl is added to each well to extract the methylene blue. The OD readout at 600 nm and a calibration curve are used to determine cell number.
IIIg (6-nitro-5-iodo-benzopyrone) is dissolved directly from dry powder to 10 mM stock solution in DMSO for each separate experiment, and then the entire volume of the stock solution is used to prepare working concentrations in cell culture medium to avoid any possibility of precipitation and the corresponding loss of compound. Control experiments are carried out with the matching volume/concentration of the vehicle (DMSO).
After the addition of drugs and incubation, cells are trypsinized and aliquots of the samples are taken for counting and PI (Propidium Iodide) exclusion assay. One part of the cells is centrifuged and resuspended in 0.5 ml ice-cold PBS containing 5 μg/ml of PI. The other part of the cells is fixed in ice-cold 70% ethanol and stored in a freezer overnight. For cell cycle analysis, cells are stained with propidium iodide (PI) by standard procedures. Cellular DNA content is determined by flow cytometry using BD LSRII FACS, and the percentages of cells in G1, S or G2/M are determined using ModFit software.
Colo375FG metastatic pancreatic adenocarcinoma cells are obtained from ATCC and cultured in Dulbecco Modified Eagle Medium with 10% fetal bovine serum. Cells are plated at 10^5 cells per P100 cell culture dish or at 10^4 cells per P60 cell culture dish in the presence of different concentrations compounds or DMSO control. Following treatment, the number of attached cells is measured using Coulter counter, and by staining with 1% methylene blue. Methylene blue is dissolved in 50%-50% mixture of Methanol and water. Cells are plated in 24- or 96-well plates and treated as planned, media are aspirated, cells are washed with PBS, fixed in methanol for 5-10 min, methanol is aspirated and plates are allowed to dry completely. Methylene blue solution is added to wells and plates are incubated for 5 min. Staining solution is removed and plates are washed with dH2O until washes are no longer blue. After plates are completely dry, a small amount of 1N HCl is added to each well to extract the methylene blue. The OD readout at 600 nm and a calibration curve are used to determine cell number.
Compounds of the invention are dissolved directly from dry powder to 10 mM stock solution in DMSO for each separate experiment. Control experiments are carried out with the matching volume/concentration of the vehicle (DMSO). In these controls, the cells show no changes in their growth or cell cycle distribution.
After the addition of drugs and incubation, cells are trypsinized and aliquots of the samples are taken for counting and PI (Propidium Iodide) exclusion assay. One part of the cells is centrifuged and resuspended in 0.5 ml ice-cold PBS containing 5 ug/ml of PI. The other part of the cells is fixed in ice-cold 70% ethanol and stored in a freezer overnight. For cell cycle analysis, cells are stained with propidium iodide (PI) by standard procedures. […]

The test system is the same in test [2]. The experiment in a line: Bromodeoxyuridine (BrdU) labeling assay (flow cytometry). Format: cell-based, human. The procedure:
50 μl of BrdU (Sigma Chemical Co., St. Louis, Mo.) stock solution (1 mM) is added to give 10 μM BrdU final concentration. The cells are incubated for 30 min at 37° C. and fixed in ice-cold 70% ethanol and stored in a cold room (4° C.) overnight. Fixed cells are centrifuged and washed once in 2 ml PBS, then resuspended in 0.7 ml of denaturation solution (0.2 mg/ml pepsin in 2 N HCl) for 15 min at 37° C. in the dark and suspended with 1.04 ml 1M Tris buffer (Trizma base, Sigma Chemical Co.) to terminate the hydrolysis and washed in 2 ml PBS.
(§1) Cells are resuspended in 100-μl anti-BrdU antibody (DakoCytomation, Carpinteria, Calif.) with 1:100 dilution in TBFP permeable buffer (0.5% Tween-20, 1% bovine serum albumin and 1% fetal bovine serum in PBS) and incubated for 25 min at room temperature in the dark and washed in 2 ml PBS. The primary antibody-labeled cells are resuspended in 100 μl Alexa Fluor F(ab′)2 fragment of goat anti-mouse IgG (H+L) (2 mg/mL) (Molecular Probes, Eugene, Oreg.) with 1:200 dilution in TBFP permeable buffer and incubated for 25 min at room temperature in the dark and washed in 2 ml PBS, then resuspended in 0.5 ml ice-cold PBS containing 1 μg/ml 4′,6-diamidino-2-phenylindole (DAPI) for at least 30 min. All cell samples are analyzed with a BD LSR II (BD Biosciences, San Jose, Calif.).
as §1, with “50 μl of BrdU (Sigma Chemical Co., St. Louis, Mo.) stock solution (1 mM) is added to give 10 μM BrdU final concentration. The cells are incubated for 30 min at 37 °C and fixed in ice-cold 70% ethanol and stored in a cold room (4 °C) overnight. Fixed cells are centrifuged and washed once in 2 ml PBS, then resuspended in 0.7 ml of denaturation solution (0.2 mg/ml pepsin in 2 N HCl) for 15 min at 37° C. in the dark and suspended with 1.04 ml 1M Tris buffer (Trizma base, Sigma Chemical Co.) and washed in 2 ml PBS. Then cells” for “Cells”

[3] abbreviates: combination of IIIg and oxaliplatin.
Setting [4] is: combination: IIIg 2.5 μM + OxaliPt 10 μM.
[5] abbreviates: combination: IIIg 2.5 μM + OxaliPt 20 μM.
[6] abbreviates: combination: IIIg 12.5 μM + OxaliPt 10 μM.
Where [7] appears, read: combination: IIIg 12.5 μM + OxaliPt 20 μM.
Where [8] appears, read: combination: IIIg 25 μM + OxaliPt 10 μM.
[9] abbreviates: combination: IIIg 25 μM + OxaliPt 20 μM.
Setting [10] is: Compound IIIc 0 mM, OxaliPt 10 mM.

Structures are written as SMILES. Where “and” joins values, the source holds several entries; their conditions need not be identical. Equal entries are not always repeated.

We go through two molecules from patent publication US20090149417A1, “Methods and compositions for the treatment of cancer using benzopyrone-type PARP inhibitors” (priority 2007, published 2009).

As to `O=c1ccc2c(I)c([N+](=O)[O-])ccc2o1` [IIIg, 5-iodo-6-nitro-benzopyrone], the “Live Cell (%)” value is 100% and 118% in test [1] (IIIg 2.5 μM, OxaliPt 0 μM); 62% in test [1] (setting [4]); 27% in test [1] (setting [5]); 22% in test [1] (setting [6]); 13% in test [1] (setting [7]); 11% in test [1] (setting [8]). Further, in test [1] (setting [9]), the “Live Cell (%)” value stood at 7%. Further, in test [1] (setting [3]), the “Percentage of live cells” value is listed as “significantly reduces the percentage of live cells”. In addition, the “S-phase % BrdU+” value in test [2] (IIIg 2.5 μM, OxaliPt 0 μM) is 94.89%; in test [2] (IIIg 12.5 μM, OxaliPt 0 μM), 93.1%; in test [2] (IIIg 25 μM, OxaliPt 0 μM), 75.18%; in test [2] (setting [4]), 86.3%; in test [2] (setting [5]), 65.32%; in test [2] (setting [6]) it was 67.5%. The figures for the “S-phase % BrdU+” value in test [2] (setting [7]), in test [2] (setting [8]) and in test [2] (setting [9]) were 33%, 24.69% and 33.85%, respectively. The “Proliferation (percentage of BrdU positive cells)” value in test [2] (setting [3]) is given as “inhibits the proliferation”.
In the case of `O=C1[O][Pt]2([NH][C@@H]3CCCC[C@H]3[NH]2)[O]C1=O` [OxaliPt, oxaliplatin, reference compound], the “Live Cell (%)” value in test [1] (setting [10]) stood at 54%; in test [1] (Compound IIIc 0 mM, OxaliPt 20 mM) it was 29%; in test [1] (IIIg 0 μM, OxaliPt 10 μM), 54%; in test [1] (IIIg 0 μM, OxaliPt 20 μM), 29%. Moreover, the “Cells in S-phase of cell cycle (% BrdU+)” value in test [2] (setting [10]) worked out at 81.74%. For the same molecule, the “S-phase % BrdU+” value in test [2] (IIIg 0 μM, OxaliPt 10 μM) was 81.74%; in test [2] (IIIg 0 μM, OxaliPt 20 μM), 63.12%.
